{
  "source": "paper PMC6372683",
  "about": "“Mechanism of the natural product moracin-O derived MO-460 and its targeting protein hnRNPA2B1 on HIF-1α inhibition” (Experimental & Molecular Medicine, 2019)",
  "key": {"HIF-1α": {"test_system": "HIF-1α", "assay": "HIF-1α accumulation under real hypoxia (1% oxygen), western blotting and immunostaining", "format": "cell-based, human", "details": "24 h", "protocol": "For immunofluorescence observation, Hep3B cells were seeded on microplates at 2 or 5 × 10^4 cells/mL and cultured for 18 h. […] The medium in the microplate wells was then removed and cells were fixed with 3.7% formaldehyde in PBS for 15 min then permeabilized for 5 min with 100% cold MeOH. Cells were washed with PBS containing 1% bovine serum albumin (PBS-1% BSA), and then treated with 5% bovine serum albumin for 20 min. The cells in each well were treated with HIF-1α antibody in PBS-0.1% BSA then placed in a humidified atmosphere of 5% CO2 at 37 °C and incubated for 60 min. After being washed with PBS-0.1% BSA, treated wells of HIF-1α were incubated with Alexa Fluor 488-conjugated mouse anti-IgG antibody in PBS-0.1% BSA then incubated at room temperature for 60 min. After being washed with PBS-0.1% BSA, the dish wells were overlaid with Hoechst 33342 for 5 min at room temperature and then washed with PBS-0.1% BSA. Fluorescence was photographed with an inverted ECLIPSE Ti-U microscope (Nikon Corporation, Japan)."}, "[1]": {"test_system": "HIF-1α translation in presence of hnRNPA2B1", "assay": "In vitro transcription/translation assay of HIF-1α", "format": "biochemical, human", "details": "purified hnRNPA2B1 protein added", "protocol": "HIF-1α proteins were synthesized using in vitro transcription/translation systems (Promega, Madison, WI), the protocol was followed the manufacturer’s instructions. In brief, mixtures containing reaction components were incubated at 30 °C for 60 min, and then analyzed by Western blotting using HIF-1α. The template was used HIF-1α plasmid DNA containing untranslated region (Korea human gene bank, Daejeon, Rep. of Korea), and full-length recombinant hnRNPA2B1 and MO-460 were added to the mixture."}, "HIF-1α protein": {"biological_target": "T1, HIF-1α protein (Homo sapiens, UniProt Q16665)", "T1 construct": "endogenous in cells; host or cells: Hep3B (cytosolic and nuclear lysates, CoCl2-treated)", "T1 sequence (Q16665 whole entry)": "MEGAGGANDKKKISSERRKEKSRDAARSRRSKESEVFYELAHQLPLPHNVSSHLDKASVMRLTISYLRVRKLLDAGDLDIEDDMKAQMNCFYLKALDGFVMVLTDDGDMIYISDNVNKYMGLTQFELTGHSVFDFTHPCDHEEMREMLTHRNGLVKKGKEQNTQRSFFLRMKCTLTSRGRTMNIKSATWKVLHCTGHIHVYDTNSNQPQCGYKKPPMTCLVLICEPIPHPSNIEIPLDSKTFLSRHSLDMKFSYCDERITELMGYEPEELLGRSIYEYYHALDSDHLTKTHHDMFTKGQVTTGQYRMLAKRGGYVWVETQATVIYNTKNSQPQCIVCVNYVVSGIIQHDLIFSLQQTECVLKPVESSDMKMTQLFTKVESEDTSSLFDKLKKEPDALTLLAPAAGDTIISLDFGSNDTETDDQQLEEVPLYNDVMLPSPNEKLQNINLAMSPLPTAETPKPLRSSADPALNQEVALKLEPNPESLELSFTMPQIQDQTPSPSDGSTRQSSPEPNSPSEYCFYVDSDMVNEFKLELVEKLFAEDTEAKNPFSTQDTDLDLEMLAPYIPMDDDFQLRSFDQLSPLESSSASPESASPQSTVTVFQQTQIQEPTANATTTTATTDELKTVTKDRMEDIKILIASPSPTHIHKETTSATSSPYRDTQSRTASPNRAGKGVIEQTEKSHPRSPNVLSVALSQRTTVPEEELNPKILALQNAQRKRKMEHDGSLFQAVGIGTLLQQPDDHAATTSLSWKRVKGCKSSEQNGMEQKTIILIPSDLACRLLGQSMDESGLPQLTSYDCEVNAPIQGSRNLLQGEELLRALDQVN", "assay": "Affinity capture with Biotin-MO-460 followed by LC/MS", "format": "binding", "details": "two rounds of the affinity capture experiment", "protocol": "We synthesized biotinylated MO-460 using a recently reported method. Fractionation and enrichment of cytosol and nuclei were performed as described previously. Briefly, Hep3B (Human hepatocyte cancer cell line) was harvested and washed twice with PBS after treatment with 200 μM of CoCl2 for 24 h, and then resuspended in lysis buffer [10 mM HEPES pH 7.9, 10 mM KCl, 0.1 mM EGTA, 0.1 mM EDTA, 0.5 mM PMSF, 0.025% 2-Mercaptoethanol, 1.6% NP-40, and protease inhibitor cocktail]. After cell lysis and homogenization by vortexing for 10 s, the insoluble material was removed by centrifugation. The supernatant was collected as a cytosol-enriched lysate. The pellet was resuspended in nuclear extract buffer [20 mM HEPES pH 7.9, 400 mM NaCl, 1 mM EGTA, 1 mM EDTA, 1 mM DTT, 1 mM PMSF, protease inhibitor cocktail]. The pellet was then vortexed vigorously at 4 °C to separate the insoluble material. After the cytosol-enriched lysate (97.9 μg of protein) and the nuclei-enriched lysate (67.5 μg of protein) were precleared by incubation with NeutrAvidine^TM agarose-resins (Thermo Scientific) that were conjugated with biotin-linker (cytosol fraction: 600 μM, nuclear fraction: 1200 μM) for 12 h at 4 °C, the cleared cell lysate was incubated with NeutrAvidine^TM agarose-resins bound -Biotin-MO-460 (cytosol fraction: 200 μM, nuclear fraction: 400 μM) for 16 h at 4 °C, respectively. […]"}},
  "data": [
    {"smiles": "CC(C)(O)[C@H]1Cc2cc3cc(-c4ccc(O)cc4)oc3cc2O1", "note": "[MO-460, (R)-4-[6-(1-Hydroxy-1-methylethyl)-5,6-dihydro-benzo[1,2-b;5,4-b’]difuran-2-yl]-phenol]", "values": [
      {"measurement": "HIF-1α accumulation", "setting": "HIF-1α", "value": "reduction in HIF-1α accumulation"},
      {"measurement": "effect on hnRNPA2B1-enhanced HIF-1α translation", "setting": "[1]", "value": "attenuated this effect"},
      {"measurement": "binding to HIF-1α protein", "setting": "HIF-1α protein", "value": "did not bind to HIF-1α protein"}
    ]}
  ]
}
